Like-named read-outs stand apart in the source and are kept apart here.
Tested on: HCV pseudoparticles (genotype 1a HCV E1 and E2 envelope, H77C isolate)
Experiment: HCV pseudoparticle infection assay (genotype 1a, luciferase reporter, Huh7 cells)
Type: cell-based
Details: Hepatitis C virus, Huh-7, 48 h, read-out: EC50 (1a, nM), HCV genotype 1a pseudoparticles, Huh7 cells, luciferase 2 days after infection

Row | Structure (SMILES) | EC50 (class symbol) | EC50 (numeric value)
1 | C[N+](C)(C)CCNC(=O)c1ccc(Nc2nc(NC3(c4ccc(Cl)cc4)CC3)nc(OCC(F)(F)F)n2)cc1 [Compound 1001, 2-(4-(4-(1-(4-chlorophenyl)cyclopropylamino)-6-(2,2,2-trifluoroethoxy)-1,3,5-triazin-2-ylamino)benzamido)-N,N,N-trimethylethanaminium] | 0.01 to 10 nM | 
2 | [2H]C([2H])(Oc1nc(Nc2ccc(C(=O)NCC[N+](C)(C)C)cc2)nc(NC2(c3ccc(Cl)cc3)CC2)n1)C(F)(F)F [Compound 1002, 2-(4-(4-(1-(4-chlorophenyl)cyclopropylamino)-6-(2,2,2-trifluoroethoxy-D2)-1,3,5-triazin-2-ylamino)benzamido)-N,N,N-trimethylethanaminium] | 0.01 to 10 nM | 
3 | C[N+](C)(C)CC(=O)NNC(=O)c1ccc(Nc2nc(NC3(c4ccc(Cl)cc4)CC3)nc(OCC(F)(F)F)n2)cc1 [Compound 1003, 2-(2-(4-(4-(1-(4-chlorophenyl)cyclopropylamino)-6-(2,2,2-trifluoroethoxy)-1,3,5-triazin-2-ylamino)benzoyl)hydrazinyl)-N,N,N-trimethyl-2-oxoethanaminium] | 10 to 1000 nM | 64.1 nM
4 | C[N+](C)(C)CCCNC(=O)c1ccc(Nc2nc(NC3(c4ccc(Cl)cc4)CC3)nc(OCC(F)(F)F)n2)cc1 [Compound 1004, 3-(4-(4-(1-(4-chlorophenyl)cyclopropylamino)-6-(2,2,2-trifluoroethoxy)-1,3,5-triazin-2-ylamino)benzamido)-N,N,N-trimethylpropan-1-aminium] | 0.01 to 10 nM | 
5 | C[N+](C)(C)CCCC[C@H](NC(=O)c1ccc(Nc2nc(NC3(c4ccc(Cl)cc4)CC3)nc(OCC(F)(F)F)n2)cc1)C(=O)O [Compound 1005, (S)-5-carboxy-5-(4-(4-(1-(4-chlorophenyl)cyclopropylamino)-6-(2,2,2-trifluoroethoxy)-1,3,5-triazin-2-ylamino)benzamido)-N,N,N-trimethylpentan-1-aminium] | 0.01 to 10 nM | 
6 | CC(C)(CNC(=O)c1ccc(Nc2nc(NC3(c4ccc(Cl)cc4)CC3)nc(OCC(F)(F)F)n2)cc1)C[N+](C)(C)C [Compound 1006, 3-(4-(4-(1-(4-chlorophenyl)cyclopropylamino)-6-(2,2,2-trifluoroethoxy)-1,3,5-triazin-2-ylamino)benzamido)-N,N,N,2,2-pentamethylpropan-1-aminium] | 0.01 to 10 nM | 0.115 nM
7 | C[N+](C)(C)CCNC(=O)c1ccc2cc1OCCCCCCCCOc1ccc(cc1)CNc1nc(nc(OCC(F)(F)F)n1)N2 [Compound 2001] | 0.01 to 10 nM | 
8 | C[N+](C)(C)CCNC(=O)c1ccc2cc1OCCCCCCOc1ccc(cc1)CNc1nc(nc(OCC(F)(F)F)n1)N2 [Compound 3001] | 0.01 to 10 nM | 
9 | C[N+](C)(C)CCCNC(=O)c1ccc2cc1OCCCCCCOc1ccc(cc1)CNc1nc(nc(OCC(F)(F)F)n1)N2 [Compound 3002] | 10 to 1000 nM | 
10 | CC(C)(CNC(=O)c1ccc2cc1OCCCCCCOc1ccc(cc1)CNc1nc(nc(OCC(F)(F)F)n1)N2)C[N+](C)(C)C [Compound 3003] | 0.01 to 10 nM | 7.51 nM
11 | C[N+](C)(C)CCNC(=O)c1ccc2cc1OCCOCCOCCOc1ccc(cc1)CNc1nc(nc(OCC(F)(F)F)n1)N2 [Compound 4001] | 0.01 to 10 nM | 
